The target in data set [1] is T1, ATP-dependent translocase ABCB1 (Homo sapiens, UniProt P08183).
Description: TP_TRANSPORTER: inhibition of Daunorubicin efflux in NIH-3T3-G185 cells
Data set [2] addresses T1, ATP-dependent translocase ABCB1. The source holds these as a separate data set.
Description: TP_TRANSPORTER: inhibition of Rhodamine 123 efflux in NIH-3T3-G185 cells
The target is the same in data set [3]. This is another data set of the same source.
Description: TP_TRANSPORTER: inhibition of LDS-751 efflux in NIH-3T3-G185 cells
Data set [4] has the same target. This is another data set of the same source.
Data set [5] has the same target. The source holds these as a separate data set.
Description: TP_TRANSPORTER: inhibition of Calcein-AM efflux in NIH-3T3-G185 cells
For data set [6] the target is unchanged. This is another data set of the same source.
Description: TP_TRANSPORTER: inhibition of Fluo-3-AM efflux in NIH-3T3-G185 cells
Data set [7] has the same target. The source holds these as a separate data set.
Description: TP_TRANSPORTER: inhibition of Tetramethylrosamine efflux in NIH-3T3-G185 cells
Data set [8] has the same target. In words: TP_TRANSPORTER: inhibition of Daunorubicin, LDS-751 and Rhodamine 123 efflux in NIH-3T3-G185 cells. Format: functional, cell-based. To be noted: mouse.

T1 sequence (P08183 whole entry): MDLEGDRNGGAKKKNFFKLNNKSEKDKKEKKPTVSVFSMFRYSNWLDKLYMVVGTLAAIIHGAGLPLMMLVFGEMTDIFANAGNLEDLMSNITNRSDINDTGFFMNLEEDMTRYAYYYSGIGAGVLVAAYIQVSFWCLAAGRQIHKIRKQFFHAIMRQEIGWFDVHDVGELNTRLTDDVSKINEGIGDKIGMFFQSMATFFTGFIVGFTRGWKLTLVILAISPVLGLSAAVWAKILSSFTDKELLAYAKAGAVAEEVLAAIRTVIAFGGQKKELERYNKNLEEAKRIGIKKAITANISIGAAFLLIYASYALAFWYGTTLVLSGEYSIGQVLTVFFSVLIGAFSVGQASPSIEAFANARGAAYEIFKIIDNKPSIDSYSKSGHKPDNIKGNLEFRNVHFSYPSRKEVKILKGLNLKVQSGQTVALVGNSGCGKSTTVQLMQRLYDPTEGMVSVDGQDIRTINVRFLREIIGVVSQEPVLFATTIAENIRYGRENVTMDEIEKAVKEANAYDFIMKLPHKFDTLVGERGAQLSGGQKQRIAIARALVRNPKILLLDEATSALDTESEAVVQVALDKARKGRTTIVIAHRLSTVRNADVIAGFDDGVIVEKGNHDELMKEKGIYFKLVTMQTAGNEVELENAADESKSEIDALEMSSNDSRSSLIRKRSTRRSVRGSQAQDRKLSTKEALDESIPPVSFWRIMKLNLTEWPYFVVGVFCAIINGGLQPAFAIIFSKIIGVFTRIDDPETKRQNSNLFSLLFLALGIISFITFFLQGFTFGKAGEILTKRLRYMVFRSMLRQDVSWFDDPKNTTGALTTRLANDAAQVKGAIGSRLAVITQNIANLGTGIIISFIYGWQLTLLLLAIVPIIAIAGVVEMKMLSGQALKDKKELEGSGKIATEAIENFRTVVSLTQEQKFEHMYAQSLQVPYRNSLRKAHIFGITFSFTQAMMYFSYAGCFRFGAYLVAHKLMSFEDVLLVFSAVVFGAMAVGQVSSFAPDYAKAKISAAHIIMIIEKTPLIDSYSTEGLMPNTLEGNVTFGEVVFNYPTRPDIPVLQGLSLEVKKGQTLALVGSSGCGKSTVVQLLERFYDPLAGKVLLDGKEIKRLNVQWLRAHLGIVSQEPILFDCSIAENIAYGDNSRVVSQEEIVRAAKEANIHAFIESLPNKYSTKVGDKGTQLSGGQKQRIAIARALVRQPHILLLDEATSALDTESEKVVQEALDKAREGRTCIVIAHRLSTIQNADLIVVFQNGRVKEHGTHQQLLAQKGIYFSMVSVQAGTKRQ

For the compound `COc1ccccc1OCCNCC(O)COc1cccc2[nH]c3ccccc3c12` (stereo unspecified) [CARVEDILOL], the IC50 in data set [1] was 4.6 µM; in data set [2], 6.6 µM; in data set [3], 6 µM.
In the case of `CC[C@H]1OC(=O)[C@H](C)[C@@H](O[C@H]2C[C@@](C)(OC)[C@@H](O)[C@H](C)O2)[C@H](C)[C@@H](O[C@@H]2O[C@H](C)C[C@H](N(C)C)[C@H]2O)[C@](C)(OC)C[C@@H](C)C(=O)[C@H](C)[C@@H](O)[C@]1(C)O` [CLARITHROMYCIN], the IC50 in data set [4] is 50.2 µM; in data set [1] it was 3.8 µM; in data set [2], 15.1 µM; in data set [5] it was 56.1 µM; in data set [6], 86.7 µM; in data set [3], 7.2 µM. Besides, the IC50 in data set [7] stood at 23.8 µM.
In the case of `CC(C)/N=c1\cc2n(-c3ccc(Cl)cc3)c3ccccc3nc-2cc1Nc1ccc(Cl)cc1` [CLOFAZIMINE], the 50% inhibitory concentration (IC50) in data set [1] came to 0.6 µM; in data set [2] it was 1 µM; in data set [3], 1.1 µM.
`C=C[C@@]1(C)CC(=O)[C@]2(O)[C@@]3(C)[C@@H](O)CCC(C)(C)[C@@H]3[C@H](O)[C@H](OC(C)=O)[C@@]2(C)O1` [COLFORSIN]: the figures for the IC50 in data set [1] and in data set [3] were 80.2 µM and 188 µM, respectively.
As for `CC[C@H]1CN2CCc3cc(OC)c(OC)cc3[C@@H]2C[C@@H]1C[C@H]1NCCc2cc(OC)c(OC)cc21` [EMETINE], the IC50 in data set [4] was 116 µM; in data set [1] it was 9.2 µM; in data set [2], 9.6 µM; in data set [5], 35.1 µM; in data set [6], 130 µM; in data set [3], 2.4 µM. For the same compound, the midpoint of inhibition in data set [7], the IC50, lay at 207 µM.
Consider `OCCN1CCN(CCCN2c3ccccc3Sc3ccc(C(F)(F)F)cc32)CC1` [FLUPHENAZINE], for which the IC50 in data set [1] came out at 6.5 µM; in data set [2] it was 10.4 µM; in data set [3] it was 5.7 µM.
Take `COc1ccc2c(c1)c(CC(=O)O)c(C)n2C(=O)c1ccc(Cl)cc1` [INDOMETHACIN]: the Activity entry in data set [8] was “is not an inhibitor [-]”.
For `COc1ccc(CCNCCCC(C#N)(c2cc(OC)c(OC)c(OC)c2)C(C)C)cc1OC` (stereo unspecified) [N-Norgallopamil], the IC50 was found to be 3.6 µM in data set [1], 8.6 µM in data set [2] and 4.9 µM in data set [3].
`CC(=O)O[C@H]1C(=O)[C@@]2(C)[C@H]([C@H](OC(=O)c3ccccc3)[C@]3(O)C[C@H](OC(=O)[C@H](O)[C@@H](NC(=O)c4ccccc4)c4ccccc4)C(C)=C1C3(C)C)[C@]1(OC(C)=O)CO[C@@H]1C[C@@H]2O` [PACLITAXEL]: the figures for the half-maximal inhibitory concentration (IC50) in data set [1], in data set [2] and in data set [3] were 54 µM, 70.2 µM and 53.9 µM, respectively.
Turning to `COC(=O)[C@H]1[C@H]2C[C@@H]3c4[nH]c5cc(OC)ccc5c4CCN3C[C@H]2C[C@@H](OC(=O)c2cc(OC)c(OC)c(OC)c2)[C@@H]1OC` [RESERPINE], the IC50 in data set [4] was 6.1 µM; in data set [1] it was 0.5 µM; in data set [2], 3.9 µM; in data set [5], 2.6 µM; in data set [6], 2.1 µM; in data set [3] it was 2.1 µM. The compound further displayed a 50% inhibitory concentration (IC50) in data set [7] of 5.3 µM.
For `c1ccc([P+](c2ccccc2)(c2ccccc2)c2ccccc2)cc1` [TETRAPHENYLPHOSPHONIUM], the results for the IC50 in data set [1] and in data set [3] were 490 µM and 427 µM, respectively.

Source of the values: ChEMBL document CHEMBL2074145, “Active transport of fluorescent P-glycoprotein substrates: evaluation as markers and interaction with inhibitors” (Biochem Biophys Res Commun, 2001).
